Assay results published in article PMC5773577, “Novel Miniature Membrane Active Lipopeptidomimetics against Planktonic and Biofilm Embedded Methicillin-Resistant Staphylococcus aureus” (Scientific Reports, 2018).
Values after ≈ are worked out from the molar mass of the structure shown. No end group written: not given here.

Legend:
[1] = system: Methicillin-resistant S. epidermidis (ATCC 35984); experiment: microbe, parasite or virus in culture; assay type: cell-based, Staphylococcus epidermidis; settings: Staphylococcus epidermidis, ATCC 35984 / MRSE; MRSE ATCC 35984; MHB, 2–5 × 10^5 CFU/mL, 16–18 h, 37 °C, OD600; read-out: Minimum inhibitory concentration, MIC
Method: (§1) The antibacterial activity was evaluated as MIC using slight modifications to a serial broth micro dilution method as reported previously[66],[67]. Briefly, to each treatment well of the 96-well plate (Corning Incorporated, USA) 10 μL of peptidomimetic/antibiotic was added and subsequently diluted serial 2-fold in 0.2% BSA (in 0.01% acetic acid). Then to each well of the first 11 columns 100 μL of mid-log phase bacterial suspension in MHB medium was added to get 2–5 × 10^5 CFU/mL. Cultures without test peptidomimetics/antibiotics were used as growth control. Uninoculated MHB medium was used as negative control. The microtitre plates were incubated overnight with agitation (180 rpm) at 37 °C. After 16–18 h incubation, absorbance was read at 600 nm using an ELISA plate reader (Molecular Devices, Sunnyvale, CA, USA). The experiments were carried out in duplicate on at least three different days.

[2] = system: S. aureus (ATCC 29213); experiment: microbe, parasite or virus in culture; assay type: cell-based, Staphylococcus aureus; settings: Staphylococcus aureus, ATCC29213, MHB, 2–5 × 10^5 CFU/mL, 16–18 h, 37 °C, OD600, duplicate, at least three days, read-out: Minimum inhibitory concentration, MIC
Method: as §1

[3] = system: MRSA (ATCC 43300); experiment: microbe, parasite or virus in culture; assay type: cell-based, Staphylococcus aureus; settings: Staphylococcus aureus, MHB, 2–5 × 10^5 CFU/mL, 16–18 h, 37 °C, OD600, read-out: Minimum inhibitory concentration, MIC
Method: as §1

[4] = system: MRSA (ATCC 33591); experiment: microbe, parasite or virus in culture; assay type: cell-based, Staphylococcus aureus; settings: MHB, 2–5 × 10^5 CFU/mL, 16–18 h, 37 °C
Method: as §1

[5] = system: S. aureus (ISP479C); experiment: microbe, parasite or virus in culture; assay type: cell-based, Staphylococcus aureus; settings: Staphylococcus aureus, MHB, 2–5 × 10^5 CFU/mL, 16–18 h, 37 °C, OD600, read-out: Minimum inhibitory concentration, MIC
Method: as §1

[6] = system: S. aureus (ATCC 25923); experiment: microbe, parasite or virus in culture; assay type: cell-based, Staphylococcus aureus; settings: Staphylococcus aureus, ATCC25923, MHB, 2–5 × 10^5 CFU/mL, 16–18 h, 37 °C, OD600, read-out: Minimum inhibitory concentration, MIC
Method: as §1

[7] = system: E. faecium (E-447), clinical isolate of vancomycin-resistant E. faecium; experiment: organism not typed; assay type: cell-based, Enterococcus faecium; settings: read-out: Minimum inhibitory concentration, MIC
Method: as §1

[8] = system: E. faecium (E-7846), clinical isolate of vancomycin-resistant E. faecium; experiment: organism not typed; assay type: cell-based, Enterococcus faecium; settings: read-out: Minimum inhibitory concentration, MIC
Method: as §1

[9] = system: E. faecalis (ATCC 29212); experiment: microbe, parasite or virus in culture; assay type: cell-based; settings: Enterococcus faecalis, ATCC29212, MHB, 2–5 × 10^5 CFU/mL, 16–18 h, 37 °C, read-out: Minimum inhibitory concentration, MIC
Method: as §1

[10] = system: Vancomycin-resistant E. faecium (ATCC 700221); experiment: microbe, parasite or virus in culture; assay type: cell-based; settings: Enterococcus faecium, ATCC700221, MHB, 2–5 × 10^5 CFU/mL, 16–18 h, 37 °C, read-out: Minimum inhibitory concentration, MIC
Method: as §1

[11] = system: MRSA ATCC 33591; experiment: Cell viability corresponding to calcein leakage experiment; assay type: cell-based, Staphylococcus aureus; settings: calcein-loaded cells in PBS, 4 × MIC (melittin 10 μM), 2 h incubation
Method: To assess the effect of designed peptidomimetics on membrane integrity of MRSA ATCC 33591 strain a calcein-AM dye release experiment was performed using the protocol described previously with slight modifications[51]. Briefly, exponential phase MRSA ATCC 33591 culture was prepared in MHB medium as mentioned earlier and adjusted to OD600 = 1 (~10^9 CFU/mL) in PBS (10 mM sodium phosphate, 150 mM NaCl, pH 7.4). Thereafter, the cells were incubated at 37 °C with calcein-AM (2 μg/mL) in 10% MHB medium for 2 h. The calcein-loaded cells were washed once and re-suspended in PBS to OD600 = 0.5 (~10^8 CFU/mL). The cells were diluted 100× in PBS to get 3–5 × 10^5 CFU/mL and were incubated with different concentrations of test agents at 37 °C in dark for 2 h. Subsequently, calcein fluorescence was measured via flow cytometry (Becton Dickinson (BD) FACS verse, San Jose, CA) with excitation and emission wavelengths of 488 nm and 530 ± 30 nm, respectively. For each sample, 10,000 cells were acquired. As a positive control, melittin (10 μM) was assayed under identical conditions. The experiment was repeated on two different days and mean ± S.D. is presented here. […]
agar plates. The plates were incubated at 37 °C for 16-18 h and colonies were counted. […]

[12] = system: MRSA ATCC 33591; experiment: Membrane permeabilization assay, calcein-AM dye release, flow cytometry; assay type: cell-based, Staphylococcus aureus; settings: PBS, 37 °C, mean ± S.D., two days
Method: To assess the effect of designed peptidomimetics on membrane integrity of MRSA ATCC 33591 strain a calcein-AM dye release experiment was performed using the protocol described previously with slight modifications. Briefly, exponential phase MRSA ATCC 33591 culture was prepared in MHB medium as mentioned earlier and adjusted to OD600 = 1 (~10^9 CFU/mL) in PBS (10 mM sodium phosphate, 150 mM NaCl, pH 7.4). Thereafter, the cells were incubated at 37 °C with calcein-AM (2 μg/mL) in 10% MHB medium for 2 h. The calcein-loaded cells were washed once and re-suspended in PBS to OD600 = 0.5 (~10^8 CFU/mL). […] Subsequently, calcein fluorescence was measured via flow cytometry (Becton Dickinson (BD) FACS verse, San Jose, CA) with excitation and emission wavelengths of 488 nm and 530 ± 30 nm, respectively. For each sample, 10,000 cells were acquired. As a positive control, melittin (10 μM) was assayed under identical conditions. The experiment was repeated on two different days and mean ± S.D. is presented here. Corresponding to leakage a viability assay at 4 × MIC of respective test agents was also performed by incubating samples for 2 h at 37 °C and plating the diluted aliquots on BHI agar plates.

[13] = system: MRSA ATCC 33591; experiment: Membrane depolarization assay, DiSC3(5); assay type: cell-based, Staphylococcus aureus; settings: 2 min, DiSC3(5), HEPES-glucose buffer pH 7.2, 37 °C, mean ± S.D., two days
Method: The cytoplasmic membrane depolarization in MRSA ATCC 33591 strain was measured using membrane potential sensitive dye 3,3′-dipropylthiacarbocyanine iodide (DiSC3(5)) with a protocol described previously with slight modifications[23],[48]. Briefly, exponential phase cells grown in MHB were harvested by centrifugation, washed and re-suspended in respiration buffer (5 mM HEPES, 20 mM glucose, pH 7.2) to 2.5 × 10^6 CFU/mL. The cells were divided into 1 mL aliquots and incubated with 3.6 μM of DiSC3(5) (in dark) for 30 min to get steady baseline fluorescence intensity. The dye-loaded cells (800 μL) were then treated with peptidomimetics at respective 1× and 4× MIC concentrations (2–20 μL) and consequent fluorescence increase after 2 min of addition was measured in a Shimadzu RF-5301 PC spectrofluorimeter. As controls IL, melittin and VAN were also assayed under identical conditions. The samples were excited at 622 nm and emission was recorded between 650–700 nm with 3 nm slit width for both excitation and emission. The temperature was maintained at 37 °C throughout the experiment. Depolarization kinetics was measured at 4 × MIC of test agents for 5 min. The experiment was repeated on two different days and for Fig. 3 panel (A) mean ± S.D. data for % depolarization relative to melittin control (10 μM) set as 100% is presented here. For panel (B) representative data is shown here. The viability of dye-loaded cells corresponding to depolarization experiment at 4 × MIC concentration was also measured by plating the diluted aliquots onto BHI agar plates.

| Compound | MIC [1] [µg/mL] | MIC [2] [µg/mL] | MIC [3] [µg/mL] | MIC ([4]; Staphylococcus aureus, OD600, read-out: Minimum inhibitory concentration, MIC) [µg/mL] | MIC [5] [µg/mL] | MIC [6] [µg/mL] | MIC [7] [µg/mL] | MIC [8] [µg/mL] | MIC [9] [µg/mL] | MIC [10] [µg/mL] | log reduction in viability [11] [log] | % calcein leakage ([12]; at 4 × MIC, 2 min incubation) [%] | % calcein leakage ([12]; at 4 × MIC, 2 h incubation) [%] | % calcein leakage ([12]; at MIC, 2 min incubation) [%] | % calcein leakage ([12]; at MIC, 2 h incubation) [%] | Minimum inhibitory concentration, MIC ([4]; OD600) [µg/mL] | % depolarization relative to melittin control (10 μM, set as 100%) ([13]; at 4 × MIC) [%] | % depolarization relative to melittin control (10 μM, set as 100%) ([13]; at MIC) [%] |
| --- | --- | --- | --- | --- | --- | --- | --- | --- | --- | --- | --- | --- | --- | --- | --- | --- | --- | --- |
| Cc1onc(-c2ccccc2)c1C(=O)N[C@@H]1C(=O)N2[C@@H]1SC(C)(C)[C@@H]2C(=O)O [OXA, oxacillin] | > 45.4 | < 0.3 | 56.8 (≈ 141 µM) | 56.8 (≈ 141 µM) | 0.3 (≈ 0.747 µM) | < 0.3 | > 233 | > 233 | 5.6 (≈ 13.9 µM) | > 45.4 | – | – | – | – | – | – | – | – |
| indolicidin (ILPWKWPWWPWRR; ends and bridges not checked; UniProt P33046 131-143, looked up) [naturally occurring Trp-Arg rich CAMP used as control] | – | – | – | – | – | – | – | – | – | – | 1.8 | 42.2 ± 27.9 | 50.6 ± 23.6 | 6.2 ± 8.8 | 2.7 ± 3.9 | 3.2 | 87.4 ± 5.5 | 48.3 ± 6.3 |
